Measured values as given in patent publication US20150258101A1 (Proximagen Limited, priority 2014, published 2015).

Biological target: T1, purified recombinantly expressed human SSAO (Homo sapiens, UniProt Q16853)
T1 construct: made in house
T1 sequence (Q16853 1-763): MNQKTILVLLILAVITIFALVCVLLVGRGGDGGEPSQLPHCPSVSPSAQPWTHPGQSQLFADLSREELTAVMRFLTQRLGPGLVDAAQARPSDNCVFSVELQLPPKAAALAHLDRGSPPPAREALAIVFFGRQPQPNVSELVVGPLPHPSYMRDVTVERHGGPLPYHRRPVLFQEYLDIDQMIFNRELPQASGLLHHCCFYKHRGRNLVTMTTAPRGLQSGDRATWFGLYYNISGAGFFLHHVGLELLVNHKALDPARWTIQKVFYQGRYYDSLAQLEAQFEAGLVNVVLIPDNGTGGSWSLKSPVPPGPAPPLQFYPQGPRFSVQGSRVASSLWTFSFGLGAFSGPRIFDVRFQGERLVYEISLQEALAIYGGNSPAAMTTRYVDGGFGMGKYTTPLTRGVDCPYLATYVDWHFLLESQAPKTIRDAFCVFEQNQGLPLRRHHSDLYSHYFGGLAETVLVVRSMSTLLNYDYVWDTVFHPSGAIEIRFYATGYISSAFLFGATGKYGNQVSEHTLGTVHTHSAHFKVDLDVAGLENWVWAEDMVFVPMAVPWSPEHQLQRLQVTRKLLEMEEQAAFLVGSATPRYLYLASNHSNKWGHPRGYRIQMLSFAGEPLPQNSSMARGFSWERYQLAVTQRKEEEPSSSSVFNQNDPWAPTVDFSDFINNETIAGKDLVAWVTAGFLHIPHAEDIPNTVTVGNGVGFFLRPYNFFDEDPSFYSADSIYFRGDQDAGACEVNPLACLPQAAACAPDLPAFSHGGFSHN
Assay: SSAO enzyme inhibition assay (benzylamine substrate; hydrogen peroxide/HRP-coupled or 14C aldehyde detection)
Assay type: biochemical
Conditions: SSAO inhibitory activity, RT
Procedure: All primary assays were performed at RT. with purified recombinantly expressed human SSAO. Enzyme was prepared essentially as described in Öhman et al. (Protein Expression and Purification 46 (2006) 321-331). In addition, secondary- and selectivity assays were performed using SSAO prepared from various tissues or purified rat recombinant SSAO. The enzyme activity was assayed with benzylamine as substrate by measuring either benzaldehyde production, using ^14C-labeled substrate, or by utilizing the production of hydrogen peroxide in a horseradish peroxidase (HRP) coupled reaction. Briefly, test compounds were dissolved in dimethyl sulfoxide (DMSO) to a concentration of 10 mM. Dose-response measurements were assayed by either creating 1:10 serial dilutions in DMSO to produce a 7 point curve or by making 1:3 serial dilutions in DMSO to produce 11 point curves.
In a horseradish peroxidase (HRP) coupled reaction, hydrogen peroxide oxidation of 10-acetyl-3,7-dihydroxyphenoxazine produced resorufin, which is a highly fluorescent compound (Zhout and Panchuk-Voloshina. Analytical Biochemistry 253 (1997) 169-174; Amplex® Red Hydrogen Peroxide/peroxidase Assay kit, Invitrogen A22188). Enzyme and compounds in 50 mM sodium phosphate, pH 7.4 were set to pre-incubate in flat-bottomed microtiter plates for approximately 15 min before initiating the reaction by addition of a mixture of HRP, benzylamine and Amplex reagent. Benzylamine concentration was fixed at a concentration corresponding to the Michaelis constant, determined using standard procedures. Fluorescence intensity was then measured at several time points during 1-2 h, exciting at 544 nm and reading the emission at 590 nm. For the human SSAO assay final concentrations of the reagents in the assay wells were: SSAO enzyme 1 ug/ml, benzylamine 100 uM, Amplex reagent 20 uM, HRP 0.1 U/mL and varying concentrations of test compound. The inhibition was measured as % decrease of the signal compared to a control without inhibitor (only diluted DMSO). The background signal from a sample containing no SSAO enzyme was subtracted from all data points. Data was fitted to a four parameter logistic model and IC50 values were calculated using the Graph Pad Prism 4 or XLfit 4 programs.
SSAO activity was assayed using 14C-labeled benzylamine and analysed by measuring radioactive benzaldehyde. In a white 96-well optiplate (Packard), 20 uL of diluted test compound was pre-incubated at room temperature with 20 uL SSAO enzyme for approximately 15 min with continuous agitation. All dilutions were made with PBS. The reaction was initiated by adding 20 uL of the benzylamine substrate solution containing [7-14C] Benzylamine hydrochloride (CFA589, GE Healthcare). The plate was incubated for 1 h as above after which the reaction was stopped by acidification (10 uL 1M aq HCl). Then 90 uL Micro Scint-E solution (Perkin-Elmer) was added to each well and the plate was continuously mixed for 15 min. Phase separation occurred instantly and activity was read in a Topcount scintillation counter (Perkin-Elmer). In the final reaction well, the human recombinant SSAO concentration was 10 ug/ml. In order to optimize sensitivity, the substrate concentration was decreased as compared to the HRP coupled assay in order to get a higher fraction of radioactive product. In the human SSAO assay, benzylamine concentration was 40 uM (0.2 uCi/mL). Data was analysed as above.

| IC50 | SMILES |
| --- | --- |
| < 50 nM | Fc1ccc(-n2c(-c3ccc(OC4CCOCC4)nc3)nc3ccncc32)cc1 [Example 113, 5-[3-(4-Fluorophenyl)-3H-imidazo[4,5-c]pyridin-2-yl]-2-(oxan-4-yloxy)pyridine] |
| < 50 nM | Cn1nccc1-c1cc2ccncc2n1-c1ccc(Cl)cc1 [Example 134, 5-[1-(4-Chlorophenyl)-1H-pyrrolo[2,3-c]pyridin-2-yl]-1-methyl-1H-pyrazole] |
| < 50 nM | Cc1nc(C)c(-c2cc3ccncc3n2-c2ccc(Cl)cc2)[nH]1 [Example 126, 5-[1-(4-Chlorophenyl)-1H-pyrrolo[2,3-c]pyridin-2-yl]-2,4-dimethyl-1H-imidazole] |
| 50 to 200 nM | CCn1ccc(-c2cc3ccncc3n2-c2ccc(Cl)cc2)cc1=O [Example 144, 4-[1-(4-Chlorophenyl)-1H-pyrrolo[2,3-c]pyridin-2-yl]-1-ethyl-1,2-dihydropyridin-2-one] |
| < 50 nM | Fc1cncc(-c2cc3ccncc3n2-c2ccc(Cl)cc2)c1 [Example 148, 3-[1-(4-Chlorophenyl)-1H-pyrrolo[2,3-c]pyridin-2-yl]-5-fluoropyridine] |
| < 50 nM | Clc1ccc(-n2c(-c3cncnc3)cc3ccncc32)cc1 [Example 123] |
| 50 to 200 nM | CN1CCN(c2ccc(-c3nc4ccncc4n3-c3ccc(F)cc3)cn2)CC1=O [Example 106, 4-{5-[3-(4-Fluorophenyl)-3H-imidazo[4,5-c]pyridin-2-yl]pyridin-2-yl}-1-methylpiperazin-2-one] |
| < 50 nM | Cn1cc(-c2cc3ccncc3n2-c2ccc(Cl)cc2)cn1 [Example 135, 4-[1-(4-Chlorophenyl)-1H-pyrrolo[2,3-c]pyridin-2-yl]-1-methyl-1H-pyrazole] |

Second part, the compound before the results:

| SMILES | IC50 |
| --- | --- |
| Cc1ccc(-n2c(-c3cnc(N4C[C@@H](C)O[C@@H](C)C4)nc3)nc3ccncc32)nc1 [Example 36, (2R,6S)-2,6-Dimethyl-4-{5-[3-(5-methylpyridin-2-yl)-3H-imidazo[4,5-c]pyridin-2-yl]pyrimidin-2-yl}morpholine] | 50 to 200 nM |
| Cc1ccc(-n2c(-c3ccc(N4C[C@@H](C)O[C@@H](C)C4)nc3)nc3ccncc32)nc1 [Example 104, (2R,6S)-2,6-Dimethyl-4-{5-[3-(5-methylpyridin-2-yl)-3H-imidazo[4,5-c]pyridin-2-yl]pyridin-2-yl}morpholine] | < 50 nM |
| Clc1ccc(-n2c(-c3cnc[nH]3)nc3ccncc32)cc1 [Example 44, 5-[3-(4-Chlorophenyl)-3H-imidazo[4,5-c]pyridin-2-yl]-1H-imidazole] | 200 to 1200 nM |
| Cc1cc(N2CCOCC2)nc(C)c1-c1nc2ccncc2n1-c1ccc(F)cc1 [Example 29, 4-{5-[3-(4-Fluorophenyl)-3H-imidazo[4,5-c]pyridin-2-yl]-4,6-dimethylpyridin-2-yl} morpholine] | 200 to 1200 nM |
| O=c1ccc(-c2nc3ccncc3n2-c2ccc(Cl)cc2F)c[nH]1 [Example 35, 5-[3-(4-Chloro-2-fluorophenyl)-3H-imidazo[4,5-c]pyridin-2-yl]-1,2-dihydropyridin-2-one] | 200 to 1200 nM |
| Cc1cc(F)ccc1-n1c(-c2ccc(N3CCOCC3)nc2)nc2ccncc21 [Example 62, 4-{5-[3-(4-Fluoro-2-methylphenyl)-3H-imidazo[4,5-c]pyridin-2-yl]pyridin-2-yl}morpholine] | 50 to 200 nM |
| Cc1cc(F)ccc1-n1c(-c2cnc(N3CCOCC3)nc2)nc2ccncc21 [Example 55, 4-{5-[3-(4-Fluoro-2-methylphenyl)-3H-imidazo[4,5-c]pyridin-2-yl]pyrimidin-2-yl}morpholine] | < 50 nM |
| CCOCCNc1ncc(-c2nc3ccncc3n2-c2ccc(C)cc2)cn1 [Example 43, N-(2-Ethoxyethyl)-5-[3-(4-methylphenyl)-3H-imidazo [4,5-c]pyridin-2-yl] pyrimidin-2-amine] | < 50 nM |
| CS(=O)(=O)Nc1ccc(-c2nc3ccncc3n2-c2ccc(Cl)cc2)cn1 [Example 16, N-{5-[3-(4-Chlorophenyl)-3H-imidazo[4,5-c]pyridin-2-yl]pyridin-2-yl} methanesulfonamide] | 200 to 1200 nM |
